According to patent US20220017478A1, “2-BENZOYLAMINOBENZAMIDE DERIVATIVES AS BCL-3 INHIBITORS” (University College Cardiff Consultants Limited, priority 2013, published 2022):
Read-outs that look alike come from different tables or passages of the source.

Key:
[1] = Cell Titre Blue viability assay, HEK-293; assay type: cell-based; conditions: human, HEK-293 cells, HEK-293, 10 μM, vs DMSO
Text: In all assays, a DMSO control was always used.

[2] = system: MDA-MB-231 cells overexpressing Bcl-3; assay: Boyden chamber cell motility assay; assay type: cell-based, human; conditions: for IC50: Homo sapiens
Protocol: The migratory or invasive capacity of human mammary cancer cell lines was assessed by the Boyden chamber assay. Cells were seeded in low serum media in a chamber with porous membrane (transparent polyethylene terephthalate (PET) membranes with 8 μm pores) as a solid support for motility assays or with a porous membrane coated with Matrigel Basement Membrane Matrix (BD BioCoat Growth factor reduced invasion chambers) for invasion assay. The cell insert was placed into a well with complete growth media, therefore cells are stimulated by a serum gradient to migrate or invade across the membrane through pores.
Total of 750 μl of complete growth media containing 10% of serum was added to appropriate wells of a 24 well cell culture insert companion plate (BD Biosciences, Oxford, UK). A cell culture insert (BD Biosciences, Oxford, UK) was then carefully placed into each well of the insert companion plate using tweezers. Cells were detached from tissue culture plates using 0.25% w/v Trypsin/EDTA (Invitrogen) and centrifuged at 13000 rpm for 5 min. Cells were washed twice in serum free media by resuspension and centrifugation. The appropriate number of cells (2×10^5 cells/ml for MDA-MB-231 cells) was resuspended in normal growth media containing only 0.10% serum. 350 μl of the cell suspension was added to the appropriate upper chambers of the cell culture inserts and plates were incubated for 24 hrs at 37° C. and 5% CO2.
After incubation, cells on membranes were fixed by replacing the media in the top and bottom sections of the chamber with 70% ice-cold ethanol (Fisher Scientific). Plates were incubated at −20° C. for at least an hour. After fixation, inserts were immersed in a tap water using tweezers to ensure all ethanol was removed. A moistened cotton wool bud was then used to mechanically remove all cells fixed on the upper side of the membranes. Cells were stained by individually immersing the inserts into filtered Harris' Haematoxylin (Sigma, Dorset, UK) for 1 min. Following this, inserts were washed in a beaker of tap water to remove the dye and immersed in 0.5% filtered Eosin (Sigma, Dorset, UK) for 2 min. Stained inserts were then washed again in a tap water.
Glycerol Gelatin (Sigma, Dorset, UK) was heated in a beaker of boiling water and once liquefied, a drop was placed onto an appropriately labelled microscope slide (R. A. Lamb, Loughborough, UK). Membranes were cut out of the insert and transferred onto the corresponding slide with tweezers. Glycerol Gelatin was added to the top of the membranes and a cover slip was placed on the slide under firm pressure. Mounted slides were left to air dry before being analyzed.
We therefore generated a dose response curve to determine an IC50 in this assay. MDA-MB-231 cells overexpressing Bcl-3 were cultivated with Compound 1a and DMSO control over a range of molarities for 24 hrs before being seeded onto Boyden migration chambers. The constant number of live cells present during this assay across samples was monitored by cell count.
Therefore we wanted to establish whether designed analogues have similar or improved ability to suppress cell migration. MDA-MB-231 Bcl-3 over-expressing cells were cultivated with selected analogues (1f, 2a, 2c, 3a) and DMSO control over a range of molarities for 24 hrs before being seeded onto the Boyden motility chambers. Migrated cells were visualized and counted after 24 hrs. The dose response curves were generated using GraphPad software (FIG. 9). The constant number of live cells present during this assay across samples was monitored by cell count.

[3] = Cell Titre Blue viability assay, MDA-MB-231; conditions: human, MDA-MB-231 cells
Protocol: The viability of cells at experimental endpoints for particular assays was determined using the Cell Titre Blue reagent (Promega, Southampton, UK). This reagent measures the cellular metabolic activity using resazurin as an indicator dye. Viable cells, therefore metabolically active, will reduce resazurin into highly fluorescent resofurin. The resulting fluorescence levels are measured and indicate cell viability.
Cells were plated at low confluency into 96 well plates in 100 μl of complete growth media in triplicates and were incubated at 37° C. in 5% CO2 for the desired test exposure period. For each 100 μl of media in 96 well plates, 20 μl Cell Titre Blue reagent was added followed by incubation for an hour at 37° C. in 5% CO2. Fluorescence was then measured by setting excitation/emission wavelengths to 560/590 nm on a Flurostar Optima plate reader (BMG tabtech, Bucks, UK).
Cell toxicity was evaluated using the Cell Titre Blue viability assay over a range of molarities for 24 hrs.
Selected compounds were dissolved in DMSO and diluted to a highest concentration of 10 μM (0.1% DMSO). In all assays, a DMSO control was always used. Selected compounds were tested for cell toxicity in HEK-293 and MDA-MB-231 cells before being used in cell-based assays. Cell toxicity was evaluated using the Cell Titre Blue viability assay over a range of molarities for 24 hrs

[4] = MDA-MB-231, Table 3, read-out: Cell motility assay (μM) IC50
[5] = MDA-MB-231 overexpressing Bcl-3, 24 hrs pre-treatment, 24 hrs migration, read-out: IC50 cell motility (Boyden chamber)

IC50 [2, 4] [µM]	IC50 [2, 5] [µM]	IC50 ([2]; MDA-MB-231 overexpressing Bcl-3, read-out: IC50 cell motility (Boyden chamber)) [µM]	Structure (SMILES)	viability at 24 h, 10 µM [1] [%]	viability at 24 h, 10 µM [3] [%]	cell migration ([2]; 10 nM concentration)	EC50 at 24 h [3] [nM]	migration ability ([2]; MDA-MB-231 cells, 10 μM)	viability at 24 h, 1 mM [3] [%]
0.9	0.9		COc1cccc(C(=O)NCCN2CCOCC2)c1NC(=O)c1ccccc1F [Compound 3a, 2-[(2-fluorobenzoyl)amino]-3-methoxy-N-(2-morpholin-4-ylethyl) benzamide]	> 70	> 70				
0.0289	0.0289		COc1ccc(C(=O)Nc2ccccc2C(=O)NCCN2CCOCC2)cc1 [Compound 1f, 2-[(4-methoxybenzoyl)amino]-N-(2-morpholin-4-ylethyl)benzamide]	> 70	> 70	below 50%	781000		
0.31	0.31		O=C(Nc1ccccc1C(=O)NCCN1CCOCC1)c1ccccc1F [Compound 1a, 2-[(2-fluorobenzoyl)amino]-N-(2-morpholin-4-ylethyl)benzamide]	> 70	> 70			significantly suppressed migration ability	72
1.33		1.33	O=C(Nc1ccccc1C(=O)NCCCN1CCOCC1)c1ccccc1F [Compound 2a]	> 70	> 70				
